Measured values: patent US20230355622A1, “METHODS OF CHEMOVACCINATION AGAINST PLASMODIUM INFECTIONS” (Merck Sharp & Dohme LLC, priority 2020, published 2023)

test system: parasite; assay: Parasite LDH growth assay (Parasite Assay), antiparasite potency; type: cell-based; settings: 72 h, parasite LDH growth assay, ring stage parasites, 72 hours incubation at 37° C.; read-out: EC50
Description: Assessing Antiparasite Potency in a Parasite LDH Growth Assay (Parasite Assay)
The parasite stock was maintained at 4% haematocrit in RPMI-Hepes media buffered with sodium bicarbonate and supplemented with 5% heat inactivated human serum and 0.5% albumax.
On the day of assay set up, a blood smear of the parasite culture was Giemsa stained and counted. The parasitemia was adjusted to 0.7% rings and the haematocrit was diluted to 2% in RPMI-Hepes media buffered with sodium bicarbonate and supplemented with 5% heat inactivated human serum and 0.5% albumax. 30 ul of diluted parasites are then added into 10 ul of media+compound in pre-prepared Greiner TC assay plates. Parasite assay plates were placed in gassed humidified boxes in single layer and allowed to incubate at 37° C. for 72 hours. After 72 hours growth, assay plates are sealed with parafilm and frozen flat, in single file at −80° C. overnight. On the following day, assay plates are allowed to thaw at room temperature for 4 hours to which an LDH assay is performed to measure parasite growth.

Which EC50 does the source give for `CCC1(CC)CC(=O)N([C@@H]2CCOc3ccc(C(=O)N[C@@H]4c5ccccc5OC(C)(C)[C@H]4O)nc32)C(=N)N1` [Example 30A, (R)-4-(4,4-diethyl-2-imino-6-oxotetrahydropyrimidin-1(2H)-yl)-N-((3S,4R)-3-hydroxy-2,2-dimethylchroman-4-yl)-3,4-dihydro-2H-pyrano[3,2-b]pyridine-6-carboxamide] here?
The EC50 was 0.8 nM.

How did the EC50 turn out when `CCC1(CC)CC(=O)N([C@@H]2CCOc3ccc(C(=O)N[C@H]4CC(C)(C)Oc5ccccc54)nc32)C(=N)N1` [Example 31B, (R)-4-(4,4-diethyl-2-imino-6-oxotetrahydropyrimidin-1(2H)-yl)-N-((S)-2,2-dimethylchroman-4-yl)-3,4-dihydro-2H-pyrano[3,2-b]pyridine-6-carboxamide] was run?
The EC50 was 1 nM.

How did the EC50 turn out when `CCC1(CC)CC(=O)N([C@H]2c3cc(C(=O)N[C@H]4CC(C)(C)Oc5ccccc54)ccc3OC[C@@H]2OC)C(=N)N1` [Example 68A, (3R,4S)-4-(4,4-diethyl-2-imino-6-oxotetrahydropyrimidin-1(2H)-yl)-N-((S)-2,2-dimethylchroman-4-yl)-3-methoxychromane-6-carboxamide] was run?
Its EC50 is 1 nM.

Which EC50 does the source give for `CCC1(CC)CC(=O)N([C@@H]2Cc3ccc(C(=O)N[C@@H]4c5ccccc5C[C@H]4O)cc32)C(=N)N1` [Example 83, (8R)-8-(4,4-diethyl-2-imino-6-oxo-hexahydropyrimidin-1-yl)-N-[(1R,2R)-2-hydroxyindan-1-yl]bicyclo[4.2.0]octa-1(6),2,4-triene-3-carboxamide] here?
Its EC50 is 20 nM.

For `CC1(C)CC(=O)N([C@@H]2CCc3ccc(C(=O)N[C@H]4CC(C)(C)Oc5ccccc54)cc32)C(=N)N1` [Example 84, (3R)-N-[(4S)-2,2-dimethylchroman-4-yl]-3-(2-imino-4,4-dimethyl-6-oxo-hexahydropyrimidin-1-yl)indane-5-carboxamide], which EC50 is on record?
The EC50 was 0.9 nM.

Which EC50 does the source give for `CC1(C)CC(=O)N(C2c3cc(C(=O)N[C@@H]4c5ccccc5C[C@H]4O)ccc3CC2(C)C)C(=N)N1` (stereo partly drawn) [Example 87, N-[(1R,2R)-2-hydroxyindan-1-yl]-3-(2-imino-4,4-dimethyl-6-oxo-hexahydropyrimidin-1-yl)-2,2-dimethyl-indane-5-carboxamide] here?
Its EC50 is 105 nM.

`C[C@@H]1C[C@@H](N2C(=N)NC(C)(C)CC2=O)c2cc(C(=O)N[C@@H]3c4ccccc4OC[C@@]3(C)O)ccc21` [Example 104, (1R,3R)-N-[(3S,4R)-3-hydroxy-3-methyl-chroman-4-yl]-3-(2-imino-4,4-dimethyl-6-oxo-hexahydropyrimidin-1-yl)-1-methyl-indane-5-carboxamide] was tested. Which EC50 did it give?
The EC50 was 5 nM.

With `COC1COc2ccc(C(=O)N[C@@H]3c4ccccc4C[C@H]3O)cc2C1N1C(=N)NC(C)(C)CC1=O` (stereo partly drawn) [Example 110, N-[(1R,2R)-2-hydroxyindan-1-yl]-4-(2-imino-4,4-dimethyl-6-oxo-hexahydropyrimidin-1-yl)-3-methoxy-chromane-6-carboxamide] as the compound, how does the EC50 read?
Its EC50 is 60 nM.

How did the EC50 turn out when `CCC1(CC)CC(=O)N([C@@H]2CCOc3ccc(C(=O)N[C@@H](C)c4ccccc4OC)cc32)C(=N)N1` [Example 111, (4R)-4-(4,4-diethyl-2-imino-6-oxo-hexahydropyrimidin-1-yl)-N-[(1S)-1-(2-methoxyphenyl)ethyl]chromane-6-carboxamide] was run?
The EC50 was 90 nM.

With `CCC1(CC)CC(=O)N([C@H]2c3cc(C(=O)N[C@@H]4c5ccccc5C[C@H]4O)ccc3OC[C@H]2C)C(=N)N1` [Example 118, (3S,4R)-4-(4,4-diethyl-2-imino-6-oxo-hexahydropyrimidin-1-yl)-N-[(1R,2R)-2-hydroxyindan-1-yl]-3-methyl-chromane-6-carboxamide] as the compound, how does the EC50 read?
The EC50 was 0.9 nM.

Which EC50 does the source give for `CCC1(CC)CC(=O)N([C@H]2c3cc(C(=O)N[C@@H]4c5ccccc5C[C@H]4O)ccc3OC[C@@H]2C)C(=N)N1` [Example 120, (3R,4R)-4-(4,4-diethyl-2-imino-6-oxo-hexahydropyrimidin-1-yl)-N-[(1R,2R)-2-hydroxyindan-1-yl]-3-methyl-chromane-6-carboxamide] here?
The EC50 was 0.8 nM.

How did the EC50 turn out when `CC[C@]1(C)CC(=O)N([C@@H]2CCc3ccc(C(=O)N[C@@H]4c5ccccc5OC(C)(C)[C@H]4O)cc32)C(=N)N1` [Example 121, (3R)-3-[(4R)-4-ethyl-2-imino-4-methyl-6-oxo-hexahydropyrimidin-1-yl]-N-[(3S,4R)-3-hydroxy-2,2-dimethyl-chroman-4-yl]indane-5-carboxamide] was run?
The EC50 was 0.6 nM.

For `CC[C@]1(C)CC(=O)N([C@@H]2C[C@@H](C)c3ccc(C(=O)N[C@@H]4c5ccccc5OC[C@@]4(C)O)cc32)C(=N)N1` [Example 131, (1R,3R)-3-[(4R)-4-ethyl-2-imino-4-methyl-6-oxo-hexahydropyrimidin-1-yl]-N-[(3S,4R)-3-hydroxy-3-methyl-chroman-4-yl]-1-methyl-indane-5-carboxamide], which EC50 is on record?
The EC50 was 2 nM.

With `C[C@@H]1Cc2ccc(C(=O)N[C@@H]3c4ccccc4OC(C)(C)[C@H]3O)cc2[C@@H]1N1C(=N)NC(C)(C)CC1=O` [Example 135, (2R,3R)-N-[(3S,4R)-3-hydroxy-2,2-dimethyl-chroman-4-yl]-3-(2-imino-4,4-dimethyl-6-oxo-hexahydropyrimidin-1-yl)-2-methyl-indane-5-carboxamide] as the compound, how does the EC50 read?
The EC50 was 0.9 nM.

Which EC50 does the source give for `C[C@@H]1C[C@@H](N2C(=N)NC(C)(C)CC2=O)c2cc(C(=O)N[C@@H]3c4ccccc4OC(C)(C)[C@H]3O)ccc21` [Example 138, (1R,3R)-N-[(3S,4R)-3-hydroxy-2,2-dimethyl-chroman-4-yl]-3-(2-imino-4,4-dimethyl-6-oxo-hexahydropyrimidin-1-yl)-1-methyl-indane-5-carboxamide] here?
Its EC50 is 0.9 nM.

For `CCC1(CC)CC(=O)N([C@@H]2CCOc3ccc(C(=O)N[C@@H]4c5ccccc5C5(CC5)[C@H]4O)cc32)C(=N)N1` [Example 154, (4R)-4-(4,4-diethyl-2-imino-6-oxo-hexahydropyrimidin-1-yl)-N-[(1′R,2′R)-2′-hydroxyspiro[cyclopropane-1,3′-indane]-1′-yl]chromane-6-carboxamide], which EC50 is on record?
The EC50 was 0.7 nM.

With `CCC1(CC)CC(=O)N([C@@H]2C[C@H](OC)c3ccc(C(=O)N[C@@H]4c5ccccc5C[C@@]4(C)O)cc32)C(=N)N1` [Example 158, (1S,3R)-3-(4,4-diethyl-2-imino-6-oxo-hexahydropyrimidin-1-yl)-N-[(1R,2R)-2-hydroxy-2-methyl-indan-1-yl]-1-methoxy-indane-5-carboxamide] as the compound, how does the EC50 read?
The EC50 was 0.9 nM.

Which EC50 does the source give for `CCC1(CC)CC(=O)N([C@@H]2CCc3ccc(C(=O)N[C@@H]4c5ccccc5OC(C)(C)[C@H]4O)cc32)C(=N)N1` [Example 159, (3R)-3-(4,4-diethyl-2-imino-6-oxo-hexahydropyrimidin-1-yl)-N-[(3S,4R)-3-hydroxy-2,2-dimethyl-chroman-4-yl]indane-5-carboxamide] here?
Its EC50 is 0.5 nM.

same assay, conditions: parasite LDH growth assay, ring stage parasites, 72 hours incubation at 37° C.; read-out: EC50

`CCC1(CC)CC(=O)N([C@@H]2CC(C)(C)Oc3ccc(C(=O)N[C@@H]4c5ccccc5CC4(C)O)cc32)C(=N)N1` (stereo partly drawn) [Example 42A, (4R)-4-(4,4-diethyl-2-imino-6-oxotetrahydropyrimidin-1(2H)-yl)-N-((1R)-2-hydroxy-2-methyl-2,3-dihydro-1H-inden-1-yl)-2,2-dimethylchromane-6-carboxamide] was tested. Which EC50 did it give?
Its EC50 is 1 nM.

Which EC50 does the source give for `CCC1(CC)CC(=O)N([C@@H]2CC(C)(C)Oc3ccc(C(=O)N[C@@H]4c5cc(F)ccc5OC(C)(C)[C@H]4O)cc32)C(=N)N1` [Example 53A, (R)-4-(4,4-diethyl-2-imino-6-oxotetrahydropyrimidin-1(2H)-yl)-N-((3S,4R)-6-fluoro-3-hydroxy-2,2-dimethylchroman-4-yl)-2,2-dimethylchromane-6-carboxamide] here?
Its EC50 is 0.3 nM.

How did the EC50 turn out when `CCC1(CC)CC(=O)N([C@@H]2CCOc3ccc(C(=O)NC4c5ccccc5OC4(C)COC)cc32)C(=N)N1` (stereo partly drawn) [Example 64B, (4R)-4-(4,4-diethyl-2-imino-6-oxotetrahydropyrimidin-1(2H)-yl)-N-(2-(methoxymethyl)-2-methyl-2,3-dihydrobenzofuran-3-yl)chromane-6-carboxamide] was run?
Its EC50 is 0.9 nM.

With `CCC1(CC)CC(=O)N([C@H]2c3cc(C(=O)N[C@@H]4c5ccccc5OC(C)(C)[C@H]4O)ccc3OCC2OC)C(=N)N1` (stereo partly drawn) [Example 67B, (3R,4S)-4-(4,4-diethyl-2-imino-6-oxotetrahydropyrimidin-1(2H)-yl)-N-((3S,4R)-3-hydroxy-2,2-dimethylchroman-4-yl)-3-methoxychromane-6-carboxamide] as the compound, how does the EC50 read?
The EC50 was 0.8 nM.

How did the EC50 turn out when `CCC1(CC)CC(=O)N([C@H]2c3cc(C(=O)N[C@@H]4c5ccccc5C[C@H]4O)ccc3OCC2OC)C(=N)N1` (stereo partly drawn) [Example 72A, (3R,4S)-4-(4,4-diethyl-2-imino-6-oxotetrahydropyrimidin-1(2H)-yl)-N-((1R,2R)-2-hydroxy-2,3-dihydro-1H-inden-1-yl)-3-methoxychromane-6-carboxamide] was run?
Its EC50 is 0.5 nM.

`CCC1(CC)CC(=O)N([C@H]2c3cc(C(=O)N[C@@H]4c5ccccc5OC(C)(C)[C@H]4O)ccc3OC2(C)COC)C(=N)N1` (stereo partly drawn) [Example 73A, (2S,3S)-3-(4,4-diethyl-2-imino-6-oxotetrahydropyrimidin-1(2H)-yl)-N-((3S,4R)-3-hydroxy-2,2-dimethylchroman-4-yl)-2-(methoxymethyl)-2-methyl-2,3-dihydrobenzofuran-5-carboxamide] was tested. Which EC50 did it give?
The EC50 was 0.3 nM.

How did the EC50 turn out when `CCC1(CC)CC(=O)N([C@H]2c3cc(C(=O)N[C@H]4CC(C)(C)Oc5ccccc54)ccc3OC2(C)COC)C(=N)N1` (stereo partly drawn) [Example 74A, (2S,3S)-3-(4,4-diethyl-2-imino-6-oxotetrahydropyrimidin-1(2H)-yl)-N-((S)-2,2-dimethylchroman-4-yl)-2-(methoxymethyl)-2-methyl-2,3-dihydrobenzofuran-5-carboxamide] was run?
The EC50 was 0.3 nM.
